Data reported in the NIST ThermoML archive (doi:10.1021/je700438d).

Experiment: mn = molality of the nth substance listed, in mol/kg
Details: Liquid, Vibrating tube method

[Cl-].[Li+] [lithium chloride] + CCO
Details	mass density [kg/m3]
298.15 K, 120 kPa, m1 = 2.88	865.97
298.15 K, 180 kPa, m1 = 0.3023	795.82
298.15 K, 210 kPa, m1 = 0.1049	789.29
298.15 K, 210 kPa, m1 = 1.222	823.5
298.15 K, 250 kPa, m1 = 0.5873	804.88
298.15 K, 410 kPa, m1 = 2.022	845.2
298.15 K, 5040 kPa, m1 = 0.3023	799.96
298.15 K, 5040 kPa, m1 = 2.88	869.78
298.15 K, 5120 kPa, m1 = 0.1049	793.51
298.15 K, 5230 kPa, m1 = 2.022	849.07
298.15 K, 5470 kPa, m1 = 1.222	827.84
298.15 K, 5520 kPa, m1 = 0.5873	809.31
298.15 K, 9820 kPa, m1 = 1.222	831.28
298.15 K, 10030 kPa, m1 = 0.1049	797.57
298.15 K, 10050 kPa, m1 = 2.022	852.76
298.15 K, 10240 kPa, m1 = 0.3023	804.22
298.15 K, 10320 kPa, m1 = 2.88	873.67
298.15 K, 10440 kPa, m1 = 0.5873	813.28
298.15 K, 14990 kPa, m1 = 1.222	835.2
298.15 K, 15030 kPa, m1 = 2.022	856.4
298.15 K, 15170 kPa, m1 = 0.5873	816.95
298.15 K, 15240 kPa, m1 = 0.1049	801.71
298.15 K, 15620 kPa, m1 = 0.3023	808.44
298.15 K, 15640 kPa, m1 = 2.88	877.37
298.15 K, 19040 kPa, m1 = 1.222	838.14
298.15 K, 19250 kPa, m1 = 0.5873	819.98
298.15 K, 20050 kPa, m1 = 0.3023	811.77
298.15 K, 20060 kPa, m1 = 0.1049	805.39
298.15 K, 20120 kPa, m1 = 2.022	859.94
298.15 K, 20610 kPa, m1 = 2.88	880.65
298.15 K, 25080 kPa, m1 = 2.88	883.43
298.15 K, 25410 kPa, m1 = 0.1049	809.29
298.15 K, 25460 kPa, m1 = 1.222	842.57
298.15 K, 25610 kPa, m1 = 2.022	863.54
298.15 K, 25640 kPa, m1 = 0.5873	824.52
298.15 K, 25840 kPa, m1 = 0.3023	815.92
298.15 K, 30060 kPa, m1 = 0.1049	812.53
298.15 K, 30080 kPa, m1 = 2.022	866.32
298.15 K, 30110 kPa, m1 = 0.5873	827.53
298.15 K, 30190 kPa, m1 = 1.222	845.65
298.15 K, 30410 kPa, m1 = 2.88	886.56
298.15 K, 30560 kPa, m1 = 0.3023	819.15
298.15 K, 35090 kPa, m1 = 2.88	889.13
298.15 K, 35410 kPa, m1 = 2.022	869.43
298.15 K, 35560 kPa, m1 = 0.5873	831.01
298.15 K, 35710 kPa, m1 = 0.1049	816.28
298.15 K, 35840 kPa, m1 = 0.3023	822.58
298.15 K, 35870 kPa, m1 = 1.222	849.13
298.15 K, 39820 kPa, m1 = 0.5873	833.6
298.15 K, 39910 kPa, m1 = 0.3023	825.1
298.15 K, 39940 kPa, m1 = 2.022	871.92
298.15 K, 39980 kPa, m1 = 0.1049	818.97
298.15 K, 39980 kPa, m1 = 2.88	891.64
298.15 K, 40070 kPa, m1 = 1.222	851.57
323.15 K, 120 kPa, m1 = 0.1049	767.47
323.15 K, 140 kPa, m1 = 0.3023	774.35
323.15 K, 180 kPa, m1 = 2.88	845.88
323.15 K, 230 kPa, m1 = 2.022	824.57
323.15 K, 240 kPa, m1 = 0.5873	783.81
323.15 K, 410 kPa, m1 = 1.222	802.86
323.15 K, 5030 kPa, m1 = 0.5873	788.42
323.15 K, 5070 kPa, m1 = 1.222	807.19
323.15 K, 5140 kPa, m1 = 0.1049	772.47
323.15 K, 5210 kPa, m1 = 0.3023	779.31
323.15 K, 5410 kPa, m1 = 2.022	829.25
323.15 K, 5410 kPa, m1 = 2.88	850.34
323.15 K, 10020 kPa, m1 = 0.1049	777.11
323.15 K, 10050 kPa, m1 = 0.5873	793.02
323.15 K, 10080 kPa, m1 = 2.022	833.25
323.15 K, 10080 kPa, m1 = 2.88	854.11
323.15 K, 10200 kPa, m1 = 1.222	811.76
323.15 K, 10230 kPa, m1 = 0.3023	784
323.15 K, 15060 kPa, m1 = 0.3023	788.31
323.15 K, 15230 kPa, m1 = 2.022	837.42
323.15 K, 15240 kPa, m1 = 2.88	858.04
323.15 K, 15290 kPa, m1 = 1.222	816.02
323.15 K, 15320 kPa, m1 = 0.1049	781.93
323.15 K, 15620 kPa, m1 = 0.5873	797.87
323.15 K, 20040 kPa, m1 = 0.1049	786.01
323.15 K, 20060 kPa, m1 = 2.88	861.48
323.15 K, 20150 kPa, m1 = 1.222	819.88
323.15 K, 20410 kPa, m1 = 2.022	841.36
323.15 K, 20450 kPa, m1 = 0.3023	792.88
323.15 K, 20470 kPa, m1 = 0.5873	801.87
323.15 K, 25040 kPa, m1 = 0.3023	796.57
323.15 K, 25060 kPa, m1 = 0.1049	790.15
323.15 K, 25060 kPa, m1 = 1.222	823.57
323.15 K, 25140 kPa, m1 = 0.5873	805.52
323.15 K, 25300 kPa, m1 = 2.88	864.98
323.15 K, 25310 kPa, m1 = 2.022	844.84
323.15 K, 30010 kPa, m1 = 2.022	847.97
323.15 K, 30060 kPa, m1 = 0.3023	800.4
323.15 K, 30060 kPa, m1 = 0.5873	809.15
323.15 K, 30070 kPa, m1 = 2.88	867.94
323.15 K, 30150 kPa, m1 = 0.1049	794.13
323.15 K, 30420 kPa, m1 = 1.222	827.32
323.15 K, 35020 kPa, m1 = 0.3023	803.97
323.15 K, 35210 kPa, m1 = 2.88	870.9
323.15 K, 35220 kPa, m1 = 0.5873	812.74
323.15 K, 35410 kPa, m1 = 1.222	830.59
323.15 K, 35420 kPa, m1 = 2.022	851.3
323.15 K, 35610 kPa, m1 = 0.1049	798.15
323.15 K, 39860 kPa, m1 = 2.88	873.36
323.15 K, 39940 kPa, m1 = 0.1049	801.15
323.15 K, 39960 kPa, m1 = 1.222	833.36
323.15 K, 39970 kPa, m1 = 0.5873	815.82
323.15 K, 39970 kPa, m1 = 2.022	853.89
323.15 K, 39980 kPa, m1 = 0.3023	807.32
348.15 K, 140 kPa, m1 = 0.1049	743.86
348.15 K, 150 kPa, m1 = 2.022	803.25
348.15 K, 170 kPa, m1 = 0.3023	751.06
348.15 K, 420 kPa, m1 = 1.222	780.84
348.15 K, 540 kPa, m1 = 2.88	825.55
348.15 K, 740 kPa, m1 = 0.5873	761.48
348.15 K, 4960 kPa, m1 = 2.022	808.25
348.15 K, 5060 kPa, m1 = 0.3023	756.68
348.15 K, 5060 kPa, m1 = 0.5873	766.32
348.15 K, 5060 kPa, m1 = 1.222	785.85
348.15 K, 5080 kPa, m1 = 0.1049	749.63
348.15 K, 5140 kPa, m1 = 2.88	829.96
348.15 K, 10030 kPa, m1 = 2.022	813.19
348.15 K, 10060 kPa, m1 = 0.1049	755.18
348.15 K, 10070 kPa, m1 = 0.3023	762.15
348.15 K, 10080 kPa, m1 = 2.88	834.46
348.15 K, 10210 kPa, m1 = 1.222	791.09
348.15 K, 10530 kPa, m1 = 0.5873	772.13
348.15 K, 14960 kPa, m1 = 2.022	817.67
348.15 K, 15060 kPa, m1 = 2.88	838.73
348.15 K, 15120 kPa, m1 = 0.3023	767.36
348.15 K, 15280 kPa, m1 = 1.222	795.92
348.15 K, 15290 kPa, m1 = 0.5873	776.89
348.15 K, 15410 kPa, m1 = 0.1049	760.81
348.15 K, 20030 kPa, m1 = 2.022	821.94
348.15 K, 20060 kPa, m1 = 0.1049	765.44
348.15 K, 20070 kPa, m1 = 2.88	842.77
